Laboratory results from patent publication US20260070899A1, “N-(2-(4-CYANOTHIAZOLIDIN-3-YL)-2-OXOETHYL)-QUINOLINE-4-CARBOXAMIDES” (AstraZeneca AB, priority 2022, published 2026).

Experiments:
[1] = Metabolic stability in human liver microsomes (HLM); format: in vitro ADME; settings: n = 1 or average (n = 2-3)
Procedure: Metabolic stability in HLM was measured as described in J Comput Aided Mol Des 2015, 29, 795.

Rat Hepatocytes (rHep) = test: Metabolic stability in rat hepatocytes (rHep); format: in vitro ADME; settings: n = 1 or geometric mean (n = 2-3)
Procedure: Metabolic stability in rat hepatocytes was measured as described in J Comput Aided Mol Des 2015, 29, 795.

[2] = Caco-2 AB intrinsic permeability; format: in vitro ADME; settings: human, A to B intrinsic, n = 1 or average (n = 2), read-out: Caco2 AB Intrinsic Papp
Procedure: Caco-2 cell permeability was measured as described in Mol Pharm 2017, 14, 1601.

Kinetic solubility = format: physicochemical; settings: kinetic from dmso stock, n = 1 or average (n = 2-4)
Procedure: Kinetic solubility was measured as described in Comput Aided Mol Des 2015, 29, 795.

hFAP (M39-A757) = molecular target: T1, hFAP (M39-A757) (Homo sapiens, UniProt Q12884); test: biochemical;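 note: surface plasmon resonance direct binding to hFAP amine-coupled on a sensor chip, rising compound concentrations by single cycle kinetics, Kd from global fit of interaction models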
T1 sequence (Q12884 39-757): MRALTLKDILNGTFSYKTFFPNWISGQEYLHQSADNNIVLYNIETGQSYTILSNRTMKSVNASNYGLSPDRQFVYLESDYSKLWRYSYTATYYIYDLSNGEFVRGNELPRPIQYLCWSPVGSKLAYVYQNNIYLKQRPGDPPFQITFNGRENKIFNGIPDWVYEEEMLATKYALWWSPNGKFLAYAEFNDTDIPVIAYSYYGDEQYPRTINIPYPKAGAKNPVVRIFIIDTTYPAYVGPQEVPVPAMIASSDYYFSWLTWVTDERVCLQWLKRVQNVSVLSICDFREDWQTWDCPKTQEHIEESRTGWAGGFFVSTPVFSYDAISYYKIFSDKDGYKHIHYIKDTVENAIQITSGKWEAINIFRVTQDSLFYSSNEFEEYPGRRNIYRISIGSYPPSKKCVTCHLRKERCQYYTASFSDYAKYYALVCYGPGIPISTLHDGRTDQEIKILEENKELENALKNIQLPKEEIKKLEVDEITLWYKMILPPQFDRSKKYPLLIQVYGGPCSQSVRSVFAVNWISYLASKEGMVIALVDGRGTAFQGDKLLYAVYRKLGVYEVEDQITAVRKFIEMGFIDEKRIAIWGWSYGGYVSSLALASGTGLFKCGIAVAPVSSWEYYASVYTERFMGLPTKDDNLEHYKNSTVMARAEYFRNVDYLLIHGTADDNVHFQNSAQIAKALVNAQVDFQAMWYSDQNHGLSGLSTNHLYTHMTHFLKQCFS

[3] = molecular target: T2, Prolyl endopeptidase, Prolyl Oligopeptidase (hPREP) (Homo sapiens, UniProt P48147); test: biochemical
T2 sequence (P48147 1-710): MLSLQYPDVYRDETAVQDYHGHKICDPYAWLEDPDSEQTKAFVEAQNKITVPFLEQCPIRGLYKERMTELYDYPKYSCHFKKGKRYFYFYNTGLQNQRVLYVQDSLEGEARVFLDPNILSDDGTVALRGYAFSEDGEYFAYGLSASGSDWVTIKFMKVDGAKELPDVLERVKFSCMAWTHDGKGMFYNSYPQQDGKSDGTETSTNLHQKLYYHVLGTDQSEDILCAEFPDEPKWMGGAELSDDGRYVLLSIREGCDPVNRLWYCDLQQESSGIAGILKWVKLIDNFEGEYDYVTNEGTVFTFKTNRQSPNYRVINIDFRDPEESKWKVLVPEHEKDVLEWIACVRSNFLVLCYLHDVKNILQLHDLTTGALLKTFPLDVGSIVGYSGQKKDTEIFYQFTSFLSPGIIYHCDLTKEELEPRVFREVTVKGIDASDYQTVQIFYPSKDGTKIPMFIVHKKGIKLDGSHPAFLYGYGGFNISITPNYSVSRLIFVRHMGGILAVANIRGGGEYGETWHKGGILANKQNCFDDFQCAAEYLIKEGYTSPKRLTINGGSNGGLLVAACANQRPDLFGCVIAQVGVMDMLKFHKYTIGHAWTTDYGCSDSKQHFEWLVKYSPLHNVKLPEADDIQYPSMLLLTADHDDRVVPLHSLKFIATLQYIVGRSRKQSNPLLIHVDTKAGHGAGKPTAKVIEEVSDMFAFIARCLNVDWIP

[4] = molecular target: T3, human dipeptidylpeptidase 7 (hDPP7) (Homo sapiens, UniProt Q9UHL4); test: hDPP7 inhibition assay; format: biochemical; settings: hDPP7 15 nM, Ala-Pro-amino-methylcoumarin 5 μM; n = 1
T3 construct: purchased BPS Bioscience 80070
Procedure: Compounds were tested in a biochemical inhibition assay using human dipeptidylpeptidase 7 (hDPP7) enzyme at 15 nM FAC (BPS Bioscience, #80070) and the substrate Ala-Pro-amino-methylcoumarin (BPS Bioscience, #80305) at 5 μM FAC. The enzymatic reactions were conducted in duplicate at rt for 30 min in 50 μL DPP assay buffer (BPS Bioscience, #80300). Compound solutions (in DMSO) at 10 CR, 3 fold dilution series were prepared in assay buffer ten-fold higher than the final concentration, and 5 μL of the dilution was added to a 50 μL reaction so that the highest compound concentration was 100 μM FAC and the concentration of DMSO was 1% in all wells. The plates were read on a Tecan Infinite M1000 microplate reader with excitation 340 nm and emission 460 nm. Data were analyzed in Graph Pad Prism. […] Raw data signals were normalized using 1% DMSO as 0% control and no enzyme as 100% inhibitor control.

[5] = molecular target: T4, human dipeptidylpeptidase 8 (hDPP8) (Homo sapiens, UniProt Q6V1X1); test: hDPP8 inhibition assay; format: biochemical; settings: hDPP8 1.5 nM, Ala-Pro-amino-methylcoumarin 5 μM; n = 1
T4 construct: purchased BPS Bioscience 80080
Procedure: (§1) Compounds were tested in a biochemical inhibition assay using human dipeptidylpeptidase 8 (hDPP8) enzyme at 1.5 nM FAC (BPS Bioscience, #80080) and the substrate Ala-Pro-amino-methylcoumarin (BPS Bioscience #80305) at 5 μM FAC. The enzymatic reactions were conducted in duplicate at rt for 30 min in 50 μL DPP assay buffer (BPS Bioscience, #80300). Compound solutions (in DMSO) at 10 CR, 3 fold dilution series were prepared in assay buffer ten-fold higher than the final concentration, and 5 μL of the dilution was added to a 50 μL reaction so that the highest compound concentration was 100 μM FAC and the concentration of DMSO was 1% in all wells. The plates were read on a Tecan Infinite M1000 microplate reader with excitation 340 nm and emission 460 nm. Data were analyzed in Graph Pad Prism. […] Raw data signals were normalized using 1% DMSO as 0% control and no enzyme as 100% inhibitor control.

[6] = molecular target: T5, human dipeptidylpeptidase 9 (hDPP9) (Homo sapiens, UniProt Q86TI2); test: hDPP9 inhibition assay; format: biochemical; settings: hDPP9 0.4 nM, Ala-Pro-amino-methylcoumarin 5 μM; n = 1
T5 construct: purchased BPS Bioscience 80090
Procedure: as §1, with “9 (hDPP9)” for “8 (hDPP8)”, “0.4” for “1.5”, “#80090)” for “#80080)”

T5 sequence (Q86TI2 whole entry): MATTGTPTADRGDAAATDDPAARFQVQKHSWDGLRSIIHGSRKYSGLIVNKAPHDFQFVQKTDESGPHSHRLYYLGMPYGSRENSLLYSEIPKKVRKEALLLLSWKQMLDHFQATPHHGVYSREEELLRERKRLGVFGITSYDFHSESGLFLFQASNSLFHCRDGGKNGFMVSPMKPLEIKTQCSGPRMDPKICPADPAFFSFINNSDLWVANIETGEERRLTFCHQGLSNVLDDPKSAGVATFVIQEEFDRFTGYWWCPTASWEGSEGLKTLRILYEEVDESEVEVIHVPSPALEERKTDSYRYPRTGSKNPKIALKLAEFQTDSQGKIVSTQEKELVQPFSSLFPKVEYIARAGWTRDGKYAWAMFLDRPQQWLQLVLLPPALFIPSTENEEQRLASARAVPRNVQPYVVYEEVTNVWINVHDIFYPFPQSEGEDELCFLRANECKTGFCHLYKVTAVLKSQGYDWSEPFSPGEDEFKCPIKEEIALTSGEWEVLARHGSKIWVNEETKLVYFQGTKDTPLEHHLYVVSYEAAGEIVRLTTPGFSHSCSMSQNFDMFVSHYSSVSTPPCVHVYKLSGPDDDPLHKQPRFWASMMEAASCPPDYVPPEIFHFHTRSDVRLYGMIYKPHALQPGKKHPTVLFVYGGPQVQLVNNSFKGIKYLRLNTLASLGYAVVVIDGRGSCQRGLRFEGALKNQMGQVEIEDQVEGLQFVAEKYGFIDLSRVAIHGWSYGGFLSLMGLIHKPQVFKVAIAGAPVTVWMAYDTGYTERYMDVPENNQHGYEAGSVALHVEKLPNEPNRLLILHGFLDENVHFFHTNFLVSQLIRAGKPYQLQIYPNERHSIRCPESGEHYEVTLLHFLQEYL
T4 sequence (Q6V1X1 whole entry): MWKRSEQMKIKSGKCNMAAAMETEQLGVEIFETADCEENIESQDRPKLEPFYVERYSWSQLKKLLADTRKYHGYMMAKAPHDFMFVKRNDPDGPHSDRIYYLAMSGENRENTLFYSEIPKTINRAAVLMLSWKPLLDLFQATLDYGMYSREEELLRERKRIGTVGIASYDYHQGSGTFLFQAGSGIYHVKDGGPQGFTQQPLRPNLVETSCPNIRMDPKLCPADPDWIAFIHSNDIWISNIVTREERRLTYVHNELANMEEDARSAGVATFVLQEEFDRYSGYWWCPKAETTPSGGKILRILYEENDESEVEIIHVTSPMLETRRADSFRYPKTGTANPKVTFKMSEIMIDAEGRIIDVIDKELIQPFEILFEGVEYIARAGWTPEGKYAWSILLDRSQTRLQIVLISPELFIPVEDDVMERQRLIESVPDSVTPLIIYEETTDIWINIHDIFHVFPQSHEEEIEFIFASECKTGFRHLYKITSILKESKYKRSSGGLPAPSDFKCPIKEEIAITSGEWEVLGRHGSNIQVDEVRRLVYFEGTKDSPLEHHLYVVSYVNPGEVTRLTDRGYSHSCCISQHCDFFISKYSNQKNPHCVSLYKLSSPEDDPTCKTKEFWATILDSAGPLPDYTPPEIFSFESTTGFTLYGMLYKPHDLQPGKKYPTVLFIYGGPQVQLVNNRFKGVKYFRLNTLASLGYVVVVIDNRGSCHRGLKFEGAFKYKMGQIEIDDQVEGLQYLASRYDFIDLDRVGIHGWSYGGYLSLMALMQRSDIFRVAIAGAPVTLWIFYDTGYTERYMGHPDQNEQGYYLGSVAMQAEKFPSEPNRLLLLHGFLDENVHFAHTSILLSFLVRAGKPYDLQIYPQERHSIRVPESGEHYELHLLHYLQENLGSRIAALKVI

| microsomal CLint [1] [µL/min/mg] | rHeps CLint (Rat Hepatocytes (rHep)) [μL/min/1E6] | Papp A→B [2] [×10⁻⁶ cm/s] | solubility (Kinetic solubility) [µM] | Kd (hFAP (M39-A757)) [pM] | IC50 [3] [µM] | IC50 [4] [µM] | IC50 [5] [µM] | IC50 [6] [µM] | Structure (SMILES) |
| --- | --- | --- | --- | --- | --- | --- | --- | --- | --- |
| < 3 | <1 | 10 | > 1000 | 57 | 0.57 |  |  |  | COCCOc1ccc2nccc(C(=O)NCC(=O)N3CSC[C@H]3C#N)c2c1 [Example 4, (R)—N-(2-(4-Cyanothiazolidin-3-yl)-2-oxoethyl)-6-(2-methoxyethoxy)quinoline-4-carboxamide] |
|  |  |  |  |  | 1.2 | > 100 | 6.4 | 2.9 | N#C[C@@H]1CSCN1C(=O)CNC(=O)c1ccnc2ccc(OC3CCOCC3)cc12 [Example 6, (R)—N-(2-(4-Cyanothiazolidin-3-yl)-2-oxoethyl)-6-((tetrahydro-2H-pyran-4-yl)oxy)quinoline-4-carboxamide] |
